# Data from patent US20130236480A1, “TRANSGLUTAMINASE 2 INHIBITORS FOR USE IN THE PREVENTION OR TREATMENT OF RAPIDLY PROGRESSIVE GLOMERULONEPHRITIS” (priority 2010, published 2013).
# Tested on: primary culture of mouse podocytes
# Test: Wound assay of podocyte migration
# Assay type: cell-based
# Conditions: 100 μM MDC in DMSO, differentiated podocytes, p<0.05 vs. vehicle alone (n=3)
# Method: FIG. 4: Distance of migration of differentiated podocytes within 20 h in the wound assay. A wound assay was used to assess podocyte migration. Differentiated cells were seeded in a 35 mm μ-Dish (Ibidi) forming two confluent monolayers separated by a silicon insert of 500 μm width. After 1 day, the silicon insert was removed and 100 μM of MDC (monodansylcadaverin, Sigma-Aldrich #D4008) diluted in DMSO, a TG2 inhibitor, was added or not. Cells were fixed 20 h later and the distance between the two monolayers was measured. *p<0.05 vs. vehicle alone (n=3 per condition).
# In vivo podocytes are terminally differentiated and stationary cells. During crescent formation in anti-GBM GN in mice, however, podocytes assume a migratory phenotype, attach with their apical membrane onto the parietal basement membrane and start to proliferate.
compound,measurement,value
CN(C)c1cccc2c(S(=O)(=O)NCCCCCN)cccc12 [monodansylcadaverine],Migration of podocytes (distance of migration within 20 h in the wound assay),significantly blunted
